# Test results published in patent US20100183684A1, “Oral vaccination” (Bio Life Science, priority 2002, published 2010).
# Where a name gives a salt, the structure may show the parent alone.
# Tested on: caviar extract
# Assay: Antibody induction against orally fed caviar extract in mice, measured by ELISA
# Type: in vivo
# Conditions: Balb/c mice, gastric acid reducing agent with 2 mg caviar protein extract orally, fed simultaneously or with a time delay, not against daily diet; for induction of IgE antibodies against caviar extract: ELISA OD 405/450 nm
# Experimental: Four groups (A to D) with five Balb/c mice each were treated in the following way: • Group A: Oral administration of Zantac (ULSAL®, active agent: 20 microg ranitidine per mouse, single dose per mouse one hour before feeding […] with antigen) and antigen (2 mg caviar protein extract per mouse), • Group B: Oral administration of a mixture of Ulcogant (active agent: 2 mg sucralfate per mouse) and antigen (2 mg caviar protein extract per mouse), • Group C: Comparative example with intraperitoneal administration of caviar antigen (2 mg) and aluminum hydroxide as an adjuvant, • Group D: Comparative example with oral administration of antigen (2 mg).
# The antigen used was caviar extract. As a reference regarding the caviar extract used, the publication by Untersmayr E, Schöll I, Förster-Waldl E, Walter F, Riemer A, Boltz-Nitulescu G, Scheiner O, Jensen-Jarolim E. J Allergy and Immun. 2002; 109 (6): 1034-5 is cited. The antigen contained therein has a molecular weight of 118 kDa.
# The obtained results are rendered in FIG. 1. […] Groups A and B were given the antigen in conjunction with a gastric acid reducing agent orally according to the invention, while for comparison purposes group C was immunized according to a standard scheme for IgE induction, and group D was given the antigen orally without gastric acid reducing agent.
Molecule,induction of IgE antibodies against caviar extract,induction of IgG antibodies against caviar extract
"CNC(=C[N+](=O)[O-])NCCSCc1ccc(CN(C)C)o1 [Zantac, ranitidine hydrochloride]",lasting induction,lasting induction
aluminum sucrose hydrogen sulfate [Ulcogant],lasting induction,lasting induction
